In patent US8771641B2, “Aryloxyanilide imaging agents” (priority 2009, dated 2014):

Assays:
PBR [1] = target: T1, PBR (Rattus norvegicus, UniProt P16257); assay: In vivo biodistribution model: OB:striatum uptake; set-up: species or system Wistar rats; details: injection via lateral tail vein, 2, 10, 30 or 60 min, in words, compared with PBR06
T1 construct: OB is known to express higher levels of PBR compared with other areas of rat brain; from tissue; host or cells: living Wistar rats; olfactory bulb and striatum sampled
T1 sequence (P16257 whole entry): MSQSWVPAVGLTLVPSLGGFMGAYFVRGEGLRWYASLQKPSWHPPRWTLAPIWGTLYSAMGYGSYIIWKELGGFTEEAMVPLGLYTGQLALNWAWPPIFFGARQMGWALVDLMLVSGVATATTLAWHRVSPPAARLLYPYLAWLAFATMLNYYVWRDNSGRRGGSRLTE
Method: Example 11 describes the rat biodistribution model that was used to compare in vivo imaging agents of the invention with PBR06. […] As OB is known to express higher levels of PBR compared with other areas of rat brain (see “Handbook of Substance Abuse” by Tarter, Ammerman and Ott; Springer 1998: 398-99) the ratio OB:striatum is a measure of specificity of test compound uptake.
PBR06 (synthesised according to Briard et al J Med Chem 2009; 52: 688-699) and in vivo imaging agents 1-3 were tested in an in vivo biodistribution model and their respective biodistributions compared.
Adult male Wistar rats (200-300 g) were injected with 1-3 MBq of test compound via the lateral tail vein. At 2, 10, 30 or 60 min (n=3) after injection, rats were euthanised and tissues or fluids were sampled for radioactive measurement on a gamma counter.

[2] = Metabolism assay: intact test compound in rat brain by HPLC; assay type: in vivo, Wistar rats; details: 60 minutes post-injection; for proportion intact in the brain (in words): compared with PBR06
Method: Example 12 describes the assay used to evaluate the amount of intact test in vivo imaging agent in rat brain at 60 minutes post-injection.
Brain tissue samples were collected from adult male Wistar rats (200-300 g) at 60 minutes after injection of test in vivo imaging agent. These samples were then processed via solvent extraction (see below) to extract the ^18F-labelled parent along with any ^18F-labelled metabolites, before introduction to the HPLC.
Brain (minus cerebellum +medulla pons) was homogenized with 10 mls of ice-cold Acetonitrile (5000 rpm for 5 mins) to extract all the ^18F-labelled species. The resulting supernatant was then evaporated to dryness (rotary evaporation at 40° C.), concentrated in 2.5 mls of mobile phase, filtered and 1 ml was injected onto the HPLC.
The HPLC set up for ^18F analysis was connected to a dual BGO radio & UV detector. A μBondapak C18 prep column was used having dimensions 7.8×300 mm; 10 μm; 125 Å. An isocratic elution system was used using between 30-40% water and between 60-70% acetonitrile. The flow rate was 3 ml/min. The aqueous to organic phase ratio was varied for each test in vivo imaging agent to obtain a parent peak at retention time at or around 10 min±2 min.

[3] = Briard et al J Med Chem 2009; cited from earlier work
Wistar rat heart PBR = Wistar rat heart PBR (Rattus norvegicus, UniProt P16257); assay: biochemical
Chain of Wistar rat heart PBR (P16257 whole entry): as above
Method: Affinity for PBR was screened using a method adapted from Le Fur et al (Life Sci. 1983; USA 33: 449-57).
Each test compound (dissolved in 50 mM Tris-HCl, pH 7.4, 10 mM MgCl2 containing 1% DMSO) competed for binding to Wistar rat heart PBR against 0.3 nM [^3H] […] The reaction was carried out in 50 mM Tris-HCl, pH 7.4 10 mM MgCl2 for 15 minutes at 25° C.

[4] = cited from earlier work
PBR [5] = target: PBR (Homo sapiens, UniProt P30536); details: in vivo; cited from earlier work
Chain of PBR (Homo sapiens, UniProt P30536) (P30536 whole entry, species assumed): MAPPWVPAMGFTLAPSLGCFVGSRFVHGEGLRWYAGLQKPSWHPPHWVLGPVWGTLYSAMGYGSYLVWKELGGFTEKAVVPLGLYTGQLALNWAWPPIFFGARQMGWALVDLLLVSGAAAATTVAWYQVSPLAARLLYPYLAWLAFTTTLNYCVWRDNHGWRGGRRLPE

For `COc1ccc(OC)c(CN(C(=O)C[18F])c2ccccc2Oc2ccccc2)c1` [PBR06, reference compound], the “OB:striatum uptake (ratio of uptake in olfactory bulb compared to striatum)” value (PBR [1]) is listed as “less than optimal for in vivo imaging”, the “percentage of radioactivity in the brain representing intact test compound” value (from here on “percentage of radioactivity”) [2] is listed as 90% and the “metabolism in the periphery” value [3] is listed as “metabolised quite rapidly in the periphery”. For the same compound, the “penetration of metabolites through the blood-brain barrier” value [3] was “do not penetrate the blood-brain barrier” and the Ki (Wistar rat heart PBR) was 0.28 nM.

For `CC[C@@H](C)N([11CH3])C(=O)c1cc2ccccc2c(-c2ccccc2Cl)n1` [(R)-[^11C]PK11195], the protein binding [4] is listed as “high protein binding” and the “specific to non-specific binding” value (PBR [5]) is listed as “low specific to non-specific binding”.

For `O=C(C[18F])N(Cc1cccc2c1OCC2)c1ccccc1Oc1ccccc1` [in vivo imaging agent 1], the “OB:striatum uptake (ratio of uptake in olfactory bulb compared to striatum)” value (PBR [1]) was “taken up relatively more in the OB as compared with the striatum”, the “percentage of radioactivity” value [2] was 93% and the “proportion intact in the brain (in words)” value [2] was “even higher proportion intact in the brain at 60 minutes post-injection as compared with PBR06”. It also gave a Ki (Wistar rat heart PBR) of 0.31 nM.

For `O=C(C[18F])N(Cc1cccc2c1OCCO2)c1ccccc1Oc1ccccc1` [in vivo imaging agent 3], the “OB:striatum uptake (ratio of uptake in olfactory bulb compared to striatum)” value (PBR [1]) was “comparable with PBR06”, the “percentage of radioactivity” value [2] was 82% and the Ki (Wistar rat heart PBR) was 1.14 nM.

In the case of `O=C(C[18F])N(Cc1cccc2c1OCO2)c1ccccc1Oc1ccccc1` [in vivo imaging agent 2], the “OB:striatum uptake (ratio of uptake in olfactory bulb compared to striatum)” value (PBR [1]) is reported as “comparable with PBR06”, the “percentage of radioactivity” value [2] is reported as 92% and the “proportion intact in the brain (in words)” value [2] is reported as “even higher proportion intact in the brain at 60 minutes post-injection as compared with PBR06”. The Ki (Wistar rat heart PBR) was 2.03 nM.

Work on `CC1(C)Cc2cccc(CN(C(=O)C[18F])c3ccccc3Oc3ccccc3)c2O1` [in vivo imaging agent 4] yielded a Ki (Wistar rat heart PBR) of 2.66 nM.
